# Reference: publication PMC4774911, “Biochemical Screening of Five Protein Kinases from Plasmodium falciparum against 14,000 Cell-Active Compounds” (PLoS ONE, 2016)
# Values joined by “and” are separate entries in the source; they are usually repeats but may differ in a detail not shown here. Equal values may be shown once.
# Tests used:
# Assay in all cases: biochemical
# AURKA = molecular target: T1, AURKA (Homo sapiens, UniProt O14965)
# T1 sequence (O14965 1-403): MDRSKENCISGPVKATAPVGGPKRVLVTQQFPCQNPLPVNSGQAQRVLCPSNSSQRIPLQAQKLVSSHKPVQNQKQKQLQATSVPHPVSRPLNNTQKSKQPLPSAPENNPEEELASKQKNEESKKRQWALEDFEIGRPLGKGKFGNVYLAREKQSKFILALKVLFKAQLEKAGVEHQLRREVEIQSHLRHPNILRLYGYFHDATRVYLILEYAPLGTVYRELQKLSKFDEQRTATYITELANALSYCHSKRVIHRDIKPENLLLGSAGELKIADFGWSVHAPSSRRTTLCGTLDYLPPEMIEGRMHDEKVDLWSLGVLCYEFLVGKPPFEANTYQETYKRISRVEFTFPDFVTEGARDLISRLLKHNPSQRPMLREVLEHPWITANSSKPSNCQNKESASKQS
# AXL = molecular target: T2, AXL (Homo sapiens, UniProt P30530)
# T2 sequence (P30530 1-894): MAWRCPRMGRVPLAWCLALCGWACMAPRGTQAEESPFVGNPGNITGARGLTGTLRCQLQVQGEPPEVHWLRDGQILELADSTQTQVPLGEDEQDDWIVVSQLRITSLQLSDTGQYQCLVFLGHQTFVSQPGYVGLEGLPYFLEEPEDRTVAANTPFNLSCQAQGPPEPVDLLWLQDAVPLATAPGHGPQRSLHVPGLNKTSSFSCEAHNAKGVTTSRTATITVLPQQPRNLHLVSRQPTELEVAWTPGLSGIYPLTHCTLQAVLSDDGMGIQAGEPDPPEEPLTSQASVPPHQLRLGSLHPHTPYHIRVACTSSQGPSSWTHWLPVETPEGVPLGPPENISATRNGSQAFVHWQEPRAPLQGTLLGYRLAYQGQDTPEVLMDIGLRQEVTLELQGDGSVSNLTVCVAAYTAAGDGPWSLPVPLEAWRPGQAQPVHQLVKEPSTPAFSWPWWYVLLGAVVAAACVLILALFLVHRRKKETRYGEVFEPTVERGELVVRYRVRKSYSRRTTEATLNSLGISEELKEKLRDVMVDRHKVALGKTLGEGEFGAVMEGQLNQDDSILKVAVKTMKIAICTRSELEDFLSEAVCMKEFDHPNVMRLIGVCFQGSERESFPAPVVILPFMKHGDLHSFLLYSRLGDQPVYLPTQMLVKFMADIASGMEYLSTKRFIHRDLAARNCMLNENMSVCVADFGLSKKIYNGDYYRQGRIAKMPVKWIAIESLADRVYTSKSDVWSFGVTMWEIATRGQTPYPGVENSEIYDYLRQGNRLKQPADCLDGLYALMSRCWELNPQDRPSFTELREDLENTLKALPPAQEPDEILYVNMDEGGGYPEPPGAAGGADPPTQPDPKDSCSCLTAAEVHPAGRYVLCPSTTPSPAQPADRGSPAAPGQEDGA
# PRKACB = PRKACB (Homo sapiens, UniProt P22694)
# PRKD3 = molecular target: T3, PRKD3 (Homo sapiens, UniProt O94806)
# T3 sequence (O94806 1-890): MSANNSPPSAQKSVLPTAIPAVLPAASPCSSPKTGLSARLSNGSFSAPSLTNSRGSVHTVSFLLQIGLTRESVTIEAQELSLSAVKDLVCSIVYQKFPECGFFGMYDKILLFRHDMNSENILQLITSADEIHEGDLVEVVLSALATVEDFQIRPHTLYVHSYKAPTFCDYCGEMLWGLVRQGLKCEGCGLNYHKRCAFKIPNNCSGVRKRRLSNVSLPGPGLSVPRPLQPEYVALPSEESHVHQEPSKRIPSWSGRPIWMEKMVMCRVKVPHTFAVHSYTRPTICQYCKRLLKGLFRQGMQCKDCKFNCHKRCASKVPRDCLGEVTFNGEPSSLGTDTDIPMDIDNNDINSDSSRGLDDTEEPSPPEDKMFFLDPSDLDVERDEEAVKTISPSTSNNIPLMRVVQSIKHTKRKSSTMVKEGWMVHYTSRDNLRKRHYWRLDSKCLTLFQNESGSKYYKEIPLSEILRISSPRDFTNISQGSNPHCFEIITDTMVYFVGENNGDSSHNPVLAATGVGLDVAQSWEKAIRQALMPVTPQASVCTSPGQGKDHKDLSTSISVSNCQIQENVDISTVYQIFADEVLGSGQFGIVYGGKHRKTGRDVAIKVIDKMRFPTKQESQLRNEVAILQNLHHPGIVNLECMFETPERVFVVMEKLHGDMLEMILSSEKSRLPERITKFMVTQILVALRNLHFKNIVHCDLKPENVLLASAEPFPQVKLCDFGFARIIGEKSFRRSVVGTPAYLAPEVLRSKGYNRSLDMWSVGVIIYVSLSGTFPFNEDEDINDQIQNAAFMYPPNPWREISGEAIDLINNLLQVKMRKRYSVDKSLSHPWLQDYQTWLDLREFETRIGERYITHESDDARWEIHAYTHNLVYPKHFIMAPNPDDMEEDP
# STK11 = molecular target: T4, STK11 (Homo sapiens, UniProt Q15831)
# T4 sequence (Q15831 1-433): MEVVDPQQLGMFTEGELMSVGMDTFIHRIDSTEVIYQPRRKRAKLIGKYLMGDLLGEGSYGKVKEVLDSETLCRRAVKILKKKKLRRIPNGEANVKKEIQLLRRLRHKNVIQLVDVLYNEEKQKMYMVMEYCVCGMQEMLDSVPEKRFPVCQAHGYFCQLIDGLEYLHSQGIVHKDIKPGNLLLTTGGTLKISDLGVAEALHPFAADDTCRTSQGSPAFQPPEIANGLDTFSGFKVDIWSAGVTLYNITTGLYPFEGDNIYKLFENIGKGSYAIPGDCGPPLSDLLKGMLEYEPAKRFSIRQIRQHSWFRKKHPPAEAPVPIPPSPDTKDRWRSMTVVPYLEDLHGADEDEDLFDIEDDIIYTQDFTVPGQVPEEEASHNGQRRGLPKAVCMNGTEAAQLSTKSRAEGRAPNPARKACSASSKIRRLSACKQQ
# TNIK = TNIK (Homo sapiens, UniProt Q9UKE5)
# TNIK, sequence (Q9UKE5 whole entry): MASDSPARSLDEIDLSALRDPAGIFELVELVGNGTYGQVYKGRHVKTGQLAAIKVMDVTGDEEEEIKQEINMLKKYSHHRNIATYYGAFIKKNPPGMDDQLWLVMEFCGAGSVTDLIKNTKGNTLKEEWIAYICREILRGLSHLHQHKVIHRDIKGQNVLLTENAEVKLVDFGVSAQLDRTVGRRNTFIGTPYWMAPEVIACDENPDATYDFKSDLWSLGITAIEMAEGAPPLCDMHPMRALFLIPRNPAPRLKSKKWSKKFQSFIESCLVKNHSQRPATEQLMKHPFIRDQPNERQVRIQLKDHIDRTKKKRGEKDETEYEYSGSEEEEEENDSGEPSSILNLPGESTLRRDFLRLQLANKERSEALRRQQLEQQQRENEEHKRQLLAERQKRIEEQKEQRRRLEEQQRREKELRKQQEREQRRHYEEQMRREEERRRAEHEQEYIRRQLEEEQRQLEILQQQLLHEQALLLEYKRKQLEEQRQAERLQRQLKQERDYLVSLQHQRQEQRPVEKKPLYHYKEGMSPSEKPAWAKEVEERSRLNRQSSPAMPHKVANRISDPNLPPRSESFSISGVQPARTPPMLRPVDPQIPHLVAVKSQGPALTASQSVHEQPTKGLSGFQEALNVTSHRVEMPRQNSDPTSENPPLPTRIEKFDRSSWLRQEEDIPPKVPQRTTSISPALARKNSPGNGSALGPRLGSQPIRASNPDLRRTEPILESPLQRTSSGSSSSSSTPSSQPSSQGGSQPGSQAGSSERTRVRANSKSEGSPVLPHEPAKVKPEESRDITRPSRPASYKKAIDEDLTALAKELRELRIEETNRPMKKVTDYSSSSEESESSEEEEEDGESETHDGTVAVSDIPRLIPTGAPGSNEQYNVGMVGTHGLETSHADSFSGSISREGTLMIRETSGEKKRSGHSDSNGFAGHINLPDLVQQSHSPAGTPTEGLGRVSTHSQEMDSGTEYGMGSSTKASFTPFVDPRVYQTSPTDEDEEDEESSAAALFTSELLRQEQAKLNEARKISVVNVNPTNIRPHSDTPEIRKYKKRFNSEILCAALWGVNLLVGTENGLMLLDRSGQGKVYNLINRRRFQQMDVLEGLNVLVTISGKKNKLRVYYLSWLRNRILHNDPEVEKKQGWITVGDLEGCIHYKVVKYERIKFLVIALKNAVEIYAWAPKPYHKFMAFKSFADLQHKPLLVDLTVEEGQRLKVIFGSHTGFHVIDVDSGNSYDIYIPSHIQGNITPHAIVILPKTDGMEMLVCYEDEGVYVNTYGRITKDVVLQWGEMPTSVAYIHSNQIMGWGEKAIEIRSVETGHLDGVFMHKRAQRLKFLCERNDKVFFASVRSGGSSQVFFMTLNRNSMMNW
# mTOR = mTOR (Homo sapiens, UniProt P42345)
structure (smiles),measurement,setting,value
CN(C)CC(O)COc1ccc(Nc2ncc([N+](=O)[O-])c(Nc3ccccc3O)n2)cc1.O=C(O)C(F)(F)F (stereo not drawn) [TCMDC-141399],IC50,AURKA,> 20 µM
same,IC50,AXL,> 20 µM
same,IC50,PRKACB,> 20 µM
same,IC50,PRKD3,9.1 µM and 7.6 µM
same,IC50,STK11,4.4 µM
same,IC50,TNIK,0.82 µM
same,IC50,mTOR,> 20 µM
Cl.NCC1(c2nc(-c3ccc(Cl)c(O)c3)c(-c3ccncc3)[nH]2)CCCCC1 [TCMDC-141154],IC50,AURKA,> 20 µM
same,IC50,AXL,> 20 µM
same,IC50,PRKACB,0.89 µM
same,IC50,PRKD3,8.7 µM
same,IC50,STK11,1.4 µM
same,IC50,TNIK,0.29 µM
same,IC50,mTOR,> 20 µM
CN1CCN(c2ccc(Nc3ncc(C#N)c(Nc4ccccc4C(N)=O)n3)cc2)CC1.Cl [TCMDC-134116],IC50,AURKA,≤ 0.032 µM and 0.052 µM
same,IC50,AXL,0.5 µM and 0.55 µM
same,IC50,PRKACB,6.3 µM
same,IC50,PRKD3,0.37 µM
same,IC50,STK11,1 µM
same,IC50,TNIK,0.2 µM and 0.25 µM
same,IC50,mTOR,> 20 µM
